Assay results reported in US10517889B2, “Modulators of SMAD7 expression” (Ionis Pharmaceuticals, Inc., priority 2017, dated 2019).
Strand notation (5' to 3'): a small letter for the sugar, then the base; units joined by * are phosphorothioate-linked, units joined directly phosphodiester-linked; [ ] holds rarer units or linkages, { } end groups; capitals alone tell only the bases. e = 2'-O-(2-methoxyethyl) (MOE); [5mC] = 5-methylcytosine; d = 2'-deoxy (DNA)

These substances were tested on human SMAD7 mRNA (assay: Antisense inhibition of human SMAD7 mRNA expression in Hep3B cells by 5-10-5 MOE gapmers, single concentration, electroporation, RT-PCR (Example 1, Study 1 and 2)). Settings: Study 2, electroporation with 15,000 nM antisense oligonucleotide, 5-10-5 MOE gapmers targeting SEQ ID NO: 1 and 2.
Format: cell-based
Procedure, shortened: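 Readout is percent SMAD7 mRNA inhibition versus untreated cells, measured by qRT-PCR (RTS5062) and corrected for total RNA by RIBOGREEN. Oligonucleotide, 5,000 nM or 15,000 nM, was delivered by electroporation into Hep3B cells at 20,000 per well. RNA was collected about 24 h later.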

Compared with “771510 (antisense eA*eG*eT*eG*eT*dG*dG*d[5mC]*d[5mC]*dT*dG*d[5mC]*dT*d[5mC]*dA*eG*e[5mC]*eT*e[5mC]*eA) [compound 771510]”, “771511 (antisense eT*eT*eT*eG*eA*dA*dG*dT*dG*dT*dG*dG*d[5mC]*d[5mC]*dT*eG*e[5mC]*eT*e[5mC]*eA) [compound 771511]” is lower in “% inhibition of SMAD7 mRNA expression” value: 35% for the first, 31% for the second.

First: 771516 (antisense eG*eA*eG*eG*eA*dA*dA*dA*dT*dA*dT*dT*dA*dG*d[5mC]*eA*eG*e[5mC]*eA*eA) [compound 771516]
Second: 771518 (antisense eA*eA*eG*e[5mC]*eA*d[5mC]*dT*d[5mC]*dA*dG*dG*dA*dG*dG*dA*eA*eA*eA*eT*eA) [compound 771518]
The “% inhibition of SMAD7 mRNA expression” value of the first is higher: 8% for the first, 4% for the second.

First: 771519 (antisense eA*eA*eA*eG*e[5mC]*dA*dA*dG*d[5mC]*dA*d[5mC]*dT*d[5mC]*dA*dG*eG*eA*eG*eG*eA) [compound 771519]
Second: 771524 (antisense eT*eT*eG*e[5mC]*eA*dT*dG*dA*dA*dA*dA*dG*d[5mC]*dA*dA*eG*e[5mC]*eA*e[5mC]*eT) [compound 771524]
The “% inhibition of SMAD7 mRNA expression” value of the first is higher: 25% for the first, 19% for the second.

First: 771526 (antisense eG*eT*eT*eT*eG*d[5mC]*dA*dT*dG*dA*dA*dA*dA*dG*d[5mC]*eA*eA*eG*e[5mC]*eA) [compound 771526]
Second: 771527 (antisense eG*eA*eG*eT*eT*dT*dG*d[5mC]*dA*dT*dG*dA*dA*dA*dA*eG*e[5mC]*eA*eA*eG) [compound 771527]
The “% inhibition of SMAD7 mRNA expression” value of the first is higher: 26% for the first, 0% for the second.

“771532 (antisense eA*eG*eA*eA*eG*dA*dA*dA*dA*d[5mC]*d[5mC]*dA*dA*d[5mC]*d[5mC]*eA*eA*e[5mC]*eA*eA) [compound 771532]” and “771534 (antisense eA*eA*e[5mC]*eA*eG*dA*dA*d[5mC]*dA*d[5mC]*dA*dA*dA*d[5mC]*dG*eA*eG*eG*eA*e[5mC]) [compound 771534]” are the same in “% inhibition of SMAD7 mRNA expression” value: 0% for the first, 0% for the second.

Compared with “771535 (antisense eA*eA*e[5mC]*eA*eA*dA*dA*d[5mC]*dA*dG*dA*dA*d[5mC]*dA*d[5mC]*eA*eA*eA*e[5mC]*eG) [compound 771535]”, “771540 (antisense eT*e[5mC]*eA*eT*eA*dA*dG*d[5mC]*dT*dA*dT*dT*dT*d[5mC]*dT*e[5mC]*eA*eA*eA*eG) [compound 771540]” is lower in “% inhibition of SMAD7 mRNA expression” value: 17% for the first, 0% for the second.

Compared with “771542 (antisense eA*e[5mC]*eA*eA*eT*dT*d[5mC]*dT*dT*dT*dT*d[5mC]*dA*dT*dA*eA*eG*e[5mC]*eT*eA) [compound 771542]”, “771543 (antisense e[5mC]*e[5mC]*e[5mC]*e[5mC]*eA*dA*d[5mC]*dA*dA*dT*dT*d[5mC]*dT*dT*dT*eT*e[5mC]*eA*eT*eA) [compound 771543]” is higher in “% inhibition of SMAD7 mRNA expression” value: 0% for the first, 36% for the second.

Going from “771548 (antisense eG*eG*eT*eG*eT*d[5mC]*d[5mC]*dT*dG*d[5mC]*d[5mC]*dG*dA*dT*d[5mC]*eA*eT*eA*e[5mC]*e[5mC]) [compound 771548]” to “771550 (antisense eT*eG*e[5mC]*eT*eT*d[5mC]*d[5mC]*d[5mC]*d[5mC]*dT*d[5mC]*dT*dT*d[5mC]*d[5mC]*eT*eA*eT*e[5mC]*eA) [compound 771550]”, the “% inhibition of SMAD7 mRNA expression” value falls from 19% to 4%.

First: 771551 (antisense eA*eT*eT*eT*e[5mC]*dT*dG*d[5mC]*dT*dT*d[5mC]*d[5mC]*d[5mC]*d[5mC]*dT*e[5mC]*eT*eT*e[5mC]*e[5mC]) [compound 771551]
Second: 771558 (antisense eA*eA*eA*eT*eG*dA*dT*dG*dA*d[5mC]*d[5mC]*dG*d[5mC]*d[5mC]*d[5mC]*e[5mC]*e[5mC]*e[5mC]*eT*eT) [compound 771558]
The “% inhibition of SMAD7 mRNA expression” value of the first is higher: 18% for the first, 7% for the second.

“771559 (antisense eA*eA*eG*eT*eG*dA*dA*dA*dT*dG*dA*dT*dG*dA*d[5mC]*e[5mC]*eG*e[5mC]*e[5mC]*e[5mC]) [compound 771559]” was tested, and the “% inhibition of SMAD7 mRNA expression” value was 49%.

Same assay, conditions: electroporation with 15,000 nM antisense oligonucleotide (Study 2), 5-10-5 MOE gapmers targeting SEQ ID NO: 1 and 2

First: 771512 (antisense eA*eG*eT*eA*eG*dT*dT*dT*dG*dA*dA*dG*dT*dG*dT*eG*eG*e[5mC]*e[5mC]*eT) [compound 771512]
Second: 771520 (antisense eA*eT*eG*eA*eA*dA*dA*dG*d[5mC]*dA*dA*dG*d[5mC]*dA*d[5mC]*eT*e[5mC]*eA*eG*eG) [compound 771520]
The “% Inhibition of SMAD7 mRNA” value of the first is lower: 34% for the first, 37% for the second.

Compared with “771528 (antisense eA*eA*eA*eG*eA*dG*dT*dT*dT*dG*d[5mC]*dA*dT*dG*dA*eA*eA*eA*eG*e[5mC]) [compound 771528]”, “771536 (antisense eA*eG*e[5mC]*eG*eA*dA*dA*d[5mC]*dA*dA*dA*dA*d[5mC]*dA*dG*eA*eA*e[5mC]*eA*e[5mC]) [compound 771536]” is higher in “% Inhibition of SMAD7 mRNA” value: 12% for the first, 25% for the second.

First: 771544 (antisense eA*eA*eA*eA*e[5mC]*d[5mC]*d[5mC]*d[5mC]*d[5mC]*dA*dA*d[5mC]*dA*dA*dT*eT*e[5mC]*eT*eT*eT) [compound 771544]
Second: 771560 (antisense e[5mC]*eT*eG*eA*e[5mC]*dA*dA*dG*dT*dG*dA*dA*dA*dT*dG*eA*eT*eG*eA*e[5mC]) [compound 771560]
The “% Inhibition of SMAD7 mRNA” value of the first is higher: 16% for the first, 0% for the second.

Same assay, conditions: electroporation, 15,000 nM antisense oligonucleotide (Study 2), 5-10-5 MOE gapmers targeting SEQ ID NO: 1 and 2

First: 771512 (antisense eA*eG*eT*eA*eG*dT*dT*dT*dG*dA*dA*dG*dT*dG*dT*eG*eG*e[5mC]*e[5mC]*eT) [compound 771512]
Second: 771513 (antisense eA*eG*e[5mC]*eA*eA*dA*dG*dT*dA*dG*dT*dT*dT*dG*dA*eA*eG*eT*eG*eT) [compound 771513]
The “% inhibition of SMAD7 mRNA expression” value of the first is lower: 0% for the first, 34% for the second.

First: 771514 (antisense eT*eT*eA*eG*e[5mC]*dA*dG*d[5mC]*dA*dA*dA*dG*dT*dA*dG*eT*eT*eT*eG*eA) [compound 771514]
Second: 771520 (antisense eA*eT*eG*eA*eA*dA*dA*dG*d[5mC]*dA*dA*dG*d[5mC]*dA*d[5mC]*eT*e[5mC]*eA*eG*eG) [compound 771520]
The “% inhibition of SMAD7 mRNA expression” value of the first is higher: 19% for the first, 12% for the second.

First: 771521 (antisense e[5mC]*eA*eT*eG*eA*dA*dA*dA*dG*d[5mC]*dA*dA*dG*d[5mC]*dA*e[5mC]*eT*e[5mC]*eA*eG) [compound 771521]
Second: 771522 (antisense eG*e[5mC]*eA*eT*eG*dA*dA*dA*dA*dG*d[5mC]*dA*dA*dG*d[5mC]*eA*e[5mC]*eT*e[5mC]*eA) [compound 771522]
The “% inhibition of SMAD7 mRNA expression” value of the first is higher: 33% for the first, 29% for the second.

First: 771528 (antisense eA*eA*eA*eG*eA*dG*dT*dT*dT*dG*d[5mC]*dA*dT*dG*dA*eA*eA*eA*eG*e[5mC]) [compound 771528]
Second: 771529 (antisense e[5mC]*eG*eA*e[5mC]*e[5mC]*dA*dA*dA*dG*dA*dG*dT*dT*dT*dG*e[5mC]*eA*eT*eG*eA) [compound 771529]
The “% inhibition of SMAD7 mRNA expression” value of the first is higher: 4% for the first, 0% for the second.

First: 771530 (antisense eA*eA*eA*eA*eA*d[5mC]*dG*dA*d[5mC]*d[5mC]*dA*dA*dA*dG*dA*eG*eT*eT*eT*eG) [compound 771530]
Second: 771536 (antisense eA*eG*e[5mC]*eG*eA*dA*dA*d[5mC]*dA*dA*dA*dA*d[5mC]*dA*dG*eA*eA*e[5mC]*eA*e[5mC]) [compound 771536]
The “% inhibition of SMAD7 mRNA expression” value of the first is higher: 16% for the first, 0% for the second.

Going from “771537 (antisense e[5mC]*eA*eA*eA*eG*dA*dG*d[5mC]*dG*dA*dA*dA*d[5mC]*dA*dA*eA*eA*e[5mC]*eA*eG) [compound 771537]” to “771538 (antisense eT*eT*eT*e[5mC]*eT*d[5mC]*dA*dA*dA*dG*dA*dG*d[5mC]*dG*dA*eA*eA*e[5mC]*eA*eA) [compound 771538]”, the “% inhibition of SMAD7 mRNA expression” value rises from 16% to 24%.

Going from “771544 (antisense eA*eA*eA*eA*e[5mC]*d[5mC]*d[5mC]*d[5mC]*d[5mC]*dA*dA*d[5mC]*dA*dA*dT*eT*e[5mC]*eT*eT*eT) [compound 771544]” to “771545 (antisense e[5mC]*e[5mC]*eA*eA*eA*dA*dA*dA*dA*d[5mC]*d[5mC]*d[5mC]*d[5mC]*d[5mC]*dA*eA*e[5mC]*eA*eA*eT) [compound 771545]”, the “% inhibition of SMAD7 mRNA expression” value rises from 0% to 21%.

Going from “771546 (antisense eT*eA*e[5mC]*e[5mC]*eT*dG*d[5mC]*d[5mC]*d[5mC]*d[5mC]*dT*dT*d[5mC]*dT*dT*e[5mC]*e[5mC]*eA*eA*eA) [compound 771546]” to “771553 (antisense eT*eG*eG*eT*eG*d[5mC]*dT*dT*dG*dG*dA*dT*dT*dT*d[5mC]*eT*eG*e[5mC]*eT*eT) [compound 771553]”, the “% inhibition of SMAD7 mRNA expression” value rises from 26% to 38%.

First: 771554 (antisense eT*eT*eT*eG*eG*dT*dG*dG*dT*dG*d[5mC]*dT*dT*dG*dG*eA*eT*eT*eT*e[5mC]) [compound 771554]
Second: 771560 (antisense e[5mC]*eT*eG*eA*e[5mC]*dA*dA*dG*dT*dG*dA*dA*dA*dT*dG*eA*eT*eG*eA*e[5mC]) [compound 771560]
The “% inhibition of SMAD7 mRNA expression” value of the first is higher: 20% for the first, 0% for the second.

For “771561 (antisense e[5mC]*eA*e[5mC]*eT*e[5mC]*d[5mC]*dT*dG*dA*d[5mC]*dA*dA*dG*dT*dG*eA*eA*eA*eT*eG) [compound 771561]”, the “% inhibition of SMAD7 mRNA expression” value was 30%.

Same assay, conditions: electroporation, 15,000 nM, approximately 24 hours, relative to untreated control cells, gapmers targeting SEQ ID NO: 1 and 2

Going from “771517 (antisense e[5mC]*eT*e[5mC]*eA*eG*dG*dA*dG*dG*dA*dA*dA*dA*dT*dA*eT*eT*eA*eG*e[5mC]) [compound 771517]” to “771525 (antisense eT*eT*eT*eG*e[5mC]*dA*dT*dG*dA*dA*dA*dA*dG*d[5mC]*dA*eA*eG*e[5mC]*eA*e[5mC]) [compound 771525]”, the “% inhibition of SMAD7 mRNA expression” value rises from 25% to 28%.

Going from “771533 (antisense e[5mC]*eA*eA*eA*e[5mC]*dG*dA*dG*dG*dA*d[5mC]*dG*dA*dG*dA*eA*eG*eA*eA*eG) [compound 771533]” to “771541 (antisense eT*e[5mC]*eT*eT*eT*dT*d[5mC]*dA*dT*dA*dA*dG*d[5mC]*dT*dA*eT*eT*eT*e[5mC]*eT) [compound 771541]”, the “% inhibition of SMAD7 mRNA expression” value rises from 2% to 35%.

Compared with “771549 (antisense e[5mC]*e[5mC]*eT*e[5mC]*eT*dT*d[5mC]*d[5mC]*dT*dA*dT*d[5mC]*dA*dG*dG*eG*eT*eG*eT*e[5mC]) [compound 771549]”, “771557 (antisense eA*eT*eG*eA*e[5mC]*d[5mC]*dG*d[5mC]*d[5mC]*d[5mC]*d[5mC]*d[5mC]*d[5mC]*dT*dT*e[5mC]*eA*eT*eA*e[5mC]) [compound 771557]” is lower in “% inhibition of SMAD7 mRNA expression” value: 49% for the first, 19% for the second.
